The results in this text go back to patent US6069240A, “Cloning by complementation and related processes” (priority 1998, dated 2000).

Each structure is given as a SMILES string. Entries after “also recorded” stand apart in the source; their conditions may differ. Like-named read-outs stand apart in the source and are kept apart here.

The subject of assay [1] is Drosophila dnc encoded PDEs. Put plainly: Inhibition and kinetics of dnc encoded PDEs. To be noted: dnc gene product. Format: biochemical.
Experimental: (§1) The IC50 was determined by fitting the data to either a four-parameter model, or a two-parameter model, as described above. Wherever possible, the four-parameter model was used, because it could provide an accurate fit to inhibitor curves that spanned a wide range of concentrations. Data sets that could not be fitted to the four-parameter model were fitted to the two-parameter model. […] The values in parentheses represent the standard deviation of the mean for each experiment.
In the next assay the target is yeast PDE2 (Saccharomyces cerevisiae, UniProt P06776). The assay can be described thus: Inhibition of phosphodiesterases by chemicals, cell free extracts of 10DAB yeast.
Sequence of yeast PDE2 (P06776 whole entry): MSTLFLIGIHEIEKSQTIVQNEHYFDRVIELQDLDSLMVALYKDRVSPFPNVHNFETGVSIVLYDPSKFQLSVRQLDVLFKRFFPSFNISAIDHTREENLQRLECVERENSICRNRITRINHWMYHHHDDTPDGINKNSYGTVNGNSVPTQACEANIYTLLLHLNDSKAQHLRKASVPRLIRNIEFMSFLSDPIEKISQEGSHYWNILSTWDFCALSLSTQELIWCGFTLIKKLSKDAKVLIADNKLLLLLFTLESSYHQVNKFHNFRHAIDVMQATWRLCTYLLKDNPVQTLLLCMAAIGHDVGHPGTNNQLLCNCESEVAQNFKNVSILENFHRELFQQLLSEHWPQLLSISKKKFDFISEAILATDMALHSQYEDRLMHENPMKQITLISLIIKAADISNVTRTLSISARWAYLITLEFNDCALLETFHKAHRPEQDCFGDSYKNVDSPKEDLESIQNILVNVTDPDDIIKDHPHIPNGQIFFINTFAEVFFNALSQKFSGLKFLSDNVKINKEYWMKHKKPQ
For assay [2], the target named is pJC44x human cyclic AMP phosphodiesterase. Put plainly: Phosphodiesterase activity of 10DAB yeast extract expressing human cDNA (kinetics, inhibitor sensitivity). Conditions: read-out: EC50 (inhibitor concentration at 50% enzyme velocity); 1.0 μM cAMP.
Assay [3] concerns human dunce-like PDEs (three human clones). Put plainly: Inhibition and kinetics of the human dunce-like PDEs. In kind it is biochemical. Conditions: for IC50: range over the human clones, read-out: IC50s for the human clones; for IC50s fold higher than for their specific PDE classes: compared with literature values for the inhibitors' own PDE classes.
Experimental: (§2) Values were determined in duplicate from three separate cell pellets. Each value for the Km represents the average of six determinations, with the standard deviation shown in parentheses. The specific activity at Vmax is reported as the range of determinations for the six experiments.
(§3) The IC50 was determined by fitting the data to either a four-parameter model, or a two-parameter model, as described above. Wherever possible, the four-parameter model was used, because it could provide an accurate fit to inhibitor curves that spanned a wide range of concentrations. Data sets that could not be fitted to the four-parameter model were fitted to the two-parameter model.
Assay [4] concerns the target T1, rat DPD phosphodiesterase (Rattus norvegicus, UniProt P14646).
T1 construct: A large open reading frame of 562 codons was found; The first ATG appears at codon 46; made in house; host or cells: S. cerevisiae 10DAB (pde1-, pde2-), crude extract, vector pADNS
T1 sequence (P14646 220-736): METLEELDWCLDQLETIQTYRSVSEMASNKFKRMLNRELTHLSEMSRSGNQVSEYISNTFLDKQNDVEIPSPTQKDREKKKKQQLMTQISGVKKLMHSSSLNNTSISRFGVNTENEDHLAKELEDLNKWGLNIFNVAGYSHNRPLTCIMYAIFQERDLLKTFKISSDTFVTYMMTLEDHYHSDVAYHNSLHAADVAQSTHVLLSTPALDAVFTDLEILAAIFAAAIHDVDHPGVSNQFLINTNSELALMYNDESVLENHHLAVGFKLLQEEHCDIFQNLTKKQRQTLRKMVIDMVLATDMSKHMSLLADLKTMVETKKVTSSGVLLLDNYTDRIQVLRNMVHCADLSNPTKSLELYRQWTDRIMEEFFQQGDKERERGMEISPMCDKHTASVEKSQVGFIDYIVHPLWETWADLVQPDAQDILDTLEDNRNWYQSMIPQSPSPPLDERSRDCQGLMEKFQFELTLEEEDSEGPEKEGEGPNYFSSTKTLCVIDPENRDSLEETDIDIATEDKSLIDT
Put plainly: Inhibition of phosphodiesterases by chemicals, cell free extracts of 10DAB yeast. Format: biochemical.
Experimental: (§4) To test the efficiency of known inhibitory compounds, cell free extracts were made. Yeast cells deficient in endogenous phosphodiesterase (10DAB), and expressing the rat DPD or yeast PDE2 genes from the described expression vector, were used. One liter cultures were harvested, washed in buffer C (20 mM MES(pH 6.2)/0.1 mM MgCl2 /0. 1 mM EGTA/1 mM 2-mercaptoethanol), resuspended in buffer C containing 1.5 mM phenylmethylsulfonyl fluoride (PMSF), and disrupted in a French press at 4° C. Cell extracts were clarified at 100×g for 10 minutes and at 18000×g for 90 minutes.

For assay [5], the target named is pL22 Met (pTM22-like) human cyclic AMP phosphodiesterase (Homo sapiens, UniProt Q13946). Put plainly: Phosphodiesterase activity of 10DAB yeast extract expressing human cDNA (kinetics, inhibitor sensitivity).
Sequence of pL22 Met (pTM22-like) human cyclic AMP phosphodiesterase (Q13946 with tags, fused parts or gaps): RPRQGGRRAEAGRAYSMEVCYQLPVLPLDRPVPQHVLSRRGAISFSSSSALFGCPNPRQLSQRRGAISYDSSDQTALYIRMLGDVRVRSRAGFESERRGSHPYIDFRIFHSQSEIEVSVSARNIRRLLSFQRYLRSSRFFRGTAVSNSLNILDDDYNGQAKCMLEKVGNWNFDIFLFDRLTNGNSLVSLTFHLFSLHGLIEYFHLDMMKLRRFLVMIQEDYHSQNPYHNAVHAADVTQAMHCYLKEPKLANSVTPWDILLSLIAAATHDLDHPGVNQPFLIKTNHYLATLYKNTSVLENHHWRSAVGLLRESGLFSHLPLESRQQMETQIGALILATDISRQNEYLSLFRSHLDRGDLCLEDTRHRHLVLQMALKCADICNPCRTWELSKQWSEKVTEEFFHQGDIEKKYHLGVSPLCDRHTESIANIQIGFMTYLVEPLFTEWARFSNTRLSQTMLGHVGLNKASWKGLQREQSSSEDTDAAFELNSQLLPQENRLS
The subject of assay [6] is DPDE2 (plasmid pADH46R, cDNA truncated at 5' end). To be noted: 1 μM 3H cAMP, SD in parentheses.
Experimental: as §2, §3
Assay [7] addresses T2, dnc (plasmid pADDROSC, full-length) (Drosophila melanogaster, UniProt P12252).
T2 sequence (P12252 1-701 isoform P12252-3): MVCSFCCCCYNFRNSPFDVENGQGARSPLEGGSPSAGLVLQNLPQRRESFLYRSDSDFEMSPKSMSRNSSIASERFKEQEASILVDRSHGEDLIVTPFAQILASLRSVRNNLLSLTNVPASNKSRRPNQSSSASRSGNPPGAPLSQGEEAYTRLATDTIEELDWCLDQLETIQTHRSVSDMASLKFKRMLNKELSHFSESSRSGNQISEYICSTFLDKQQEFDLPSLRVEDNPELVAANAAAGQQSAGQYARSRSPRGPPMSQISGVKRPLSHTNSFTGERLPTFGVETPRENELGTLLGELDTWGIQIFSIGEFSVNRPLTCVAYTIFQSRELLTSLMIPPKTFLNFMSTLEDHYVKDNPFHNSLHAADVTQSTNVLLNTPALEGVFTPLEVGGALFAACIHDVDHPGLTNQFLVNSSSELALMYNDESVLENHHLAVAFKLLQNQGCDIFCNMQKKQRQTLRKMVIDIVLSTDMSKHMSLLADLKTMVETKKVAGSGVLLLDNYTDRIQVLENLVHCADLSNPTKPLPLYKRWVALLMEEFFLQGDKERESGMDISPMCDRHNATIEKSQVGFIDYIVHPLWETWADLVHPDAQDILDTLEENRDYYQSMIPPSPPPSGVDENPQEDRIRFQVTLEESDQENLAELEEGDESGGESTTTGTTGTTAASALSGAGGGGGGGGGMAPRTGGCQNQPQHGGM
Put plainly: biochemical.
Experimental: as §2, §3

For assay [8], the system named is DPDE4 (plasmid pADH72, cDNA truncated at 5' end). Conditions: 1 μM 3H cAMP, SD in parentheses.
Experimental: as §2, §3
Assay [9] concerns the target T3, DPDE4 (plasmid pADH72C) (Homo sapiens, UniProt Q07343). Put plainly: biochemical.
Experimental: as §1
In assay [10] the test system is DPDE3 (plasmid pADH43, cDNA truncated at 5' end). Conditions: 1 μM 3H cAMP, SD in parentheses.
Experimental: as §2, §3
The test system of assay [11] is dnc (plasmid pADDROSF, cDNA truncated at 5' end). Put plainly: Hydrolysis of 3H cAMP by yeast extracts (Dunce-like PDE clones). In kind it is biochemical, Drosophila. Conditions: 1 μM 3H cAMP, SD in parentheses.
Experimental: as §2, §3
Assay [12] deals with T3, DPDE4 (plasmid pADH72C). To be noted: 1 μM 3H cAMP, SD in parentheses.
Experimental: as §1
The target in assay [13] is T4, pRATDPD gene product (rat DPD cAMP phosphodiesterase) (Rattus norvegicus, UniProt P14646).
T4 sequence (P14646 220-736): T1 sequence (P14646 220-736)
Conditions: cGMP 100 fold over substrate concentration (5 μM cAMP, cGMP up to 500 μM).
Experimental: Yeast cells were grown at 30° C. for 36 hours in one liter cultures of synthetic media (SC-leucine). Cells were harvested and washed with buffer C (20 mM MES (pH 6.2), 0.1 mM MgCl2, 0.1 mM EGTA, 1 mM β-mercaptoethanol), were resuspended in 30 ml buffer C with 50 μl 1 M PMSF, and were disrupted with a French press. The extracts were centrifuged at 1,600×g for 10 min and the supernatants were spun at 18,000×g for 90 min (4° C.). The supernatant was assayed for phosphodiesterase activity as in Collicelli et al., supra. All the reactions contained Tris-HCl (pH7.5) (100 mM), cell extract (50 μg protein/ml), 5'-nucleotidase (Sigma, 20 ng/ml) and 10 mM Mg^2+ (unless otherwise stated) and the indicated cyclic nucleotide concentrations. […] The assay conditions were varied to ascertain the cation preferences of the enzyme and to determine the ability of calcium and calmodulin to stimulate its activity.

The subject of assay [14] is yeast strain 10DAB transformed with pAD72 (human family IV phosphodiesterase). Put plainly: Whole cell screen: heat treatment viability of transformed yeast. Conditions: 2 h at 30° C. then 50° C. for 30 min; for effect on viable cells of the culture after heat treatment (in words): concentrations up to 100 μM.
Experimental: The following procedure was applied to the screening of whole transformed host cells. […] Aliquots of this culture (300 μl) were taken and mixed with 4.8 μl 10% DMSO or 10% DMSO containing an appropriate concentration of phosphodiesterase inhibitor. The treated cultures were then incubated for two hours at 30° C., after which two 3 μl aliquots were removed and transferred to an SC-leucine agar plate. Then, a 100 μl aliquot was removed from the treated cultures and transferred to a glass 12×75 mm test tube and the test tubes were incubated at 50° C. in a mineral oil-containing hot block for 30 min. The test tubes were removed from the hot block and placed at room temperature. Two 3 μl aliquots were removed and transferred to an SC-leucine plate. The agar plates were then incubated at 30° C. and examined at various times to evaluate growth.
Assay [15] deals with yeast containing RAS2^va119 expressing the rat DPD gene. Put plainly: Heat shock phenotype reversal screen. Conditions: resistant cells incubated in agent. In kind it is cell-based. The text has this: The second type of pharmacological screen is applicable even when the mammalian gene encodes a protein of undetermined function, and, thus, cannot be assayed by a biochemical activity. In this method, agents to be tested are applied or introduced directly to the genetically altered microbial host expressing the mammalian protein. Agents capable of inhibiting the mammalian gene or gene product are identified by their ability to reverse the phenotype originally corrected by expression of the mammalian protein in the altered host.
This procedure has been used for mammalian cDNAs encoding cyclic nucleotide phosphodiesterases and a yeast containing RAS2^va119 as the host strain. When the rat DPD gene is introduced into the heat shock sensitive host and expressed, the host strain becomes heat shock resistant. […] This same approach can be applied to assess other genes.

Assay [16] deals with 10DAB cells expressing the cDNA of pRATDPD. The assay can be described thus: Heat shock sensitivity of yeast expressing rat DPD. To be noted: 100 μM for 40 minutes, then 50° C. for 30 minutes. In kind it is cell-based, S. cerevisiae. Here is the method:
10DAB cells, which are phosphodiesterase deficient, are sensitive to heat shock. As already discussed, when these cells acquire the capacity to express the cDNA of pRATDPD, they become resistant to heat shock. 10DAB cells expressing the cDNA of pRATDPD were maintained in rich medium (YPD) for three days at stationary phase. […] Control cultures were not treated with any inhibitor. These cultures were then heat shocked in glass tubes at 50° C. […] for 30 minutes. One microliter of each culture was plated.

Assay [17] relates to cAMP phosphodiesterases encoded by cDNAs of pTM3, pTM72, pJC44x and pRATDPD. The assay can be described thus: Biochemical analysis of cell lysates.

T3 sequence (Q07343 whole entry, the tested form may be a part): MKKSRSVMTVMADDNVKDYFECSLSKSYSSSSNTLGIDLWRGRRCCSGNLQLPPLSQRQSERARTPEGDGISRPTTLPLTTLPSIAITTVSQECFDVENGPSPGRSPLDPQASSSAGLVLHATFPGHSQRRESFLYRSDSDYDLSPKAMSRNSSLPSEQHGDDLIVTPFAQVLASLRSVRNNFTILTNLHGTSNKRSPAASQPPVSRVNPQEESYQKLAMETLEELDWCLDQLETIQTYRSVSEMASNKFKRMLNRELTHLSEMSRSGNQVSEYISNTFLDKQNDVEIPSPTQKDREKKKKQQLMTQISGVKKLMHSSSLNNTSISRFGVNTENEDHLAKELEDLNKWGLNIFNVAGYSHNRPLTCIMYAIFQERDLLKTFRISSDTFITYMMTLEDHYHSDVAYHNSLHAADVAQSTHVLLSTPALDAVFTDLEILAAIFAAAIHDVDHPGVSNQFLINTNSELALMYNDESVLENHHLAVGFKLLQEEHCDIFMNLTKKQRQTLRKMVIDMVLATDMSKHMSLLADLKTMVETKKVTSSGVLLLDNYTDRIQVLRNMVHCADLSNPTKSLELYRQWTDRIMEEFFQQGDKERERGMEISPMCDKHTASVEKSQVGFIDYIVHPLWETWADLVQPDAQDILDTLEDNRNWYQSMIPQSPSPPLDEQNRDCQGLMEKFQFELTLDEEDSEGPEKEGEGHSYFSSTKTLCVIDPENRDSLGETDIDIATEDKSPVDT
Experimental for yeast PDE2: as §4

Take `CCCCOc1cc(CC2CNC(=O)N2)ccc1OC` (centres unmarked) [RO 20-1724]: the figures for the IC50 in assay [1] and in assay [3] were 1000 µM and 1 to 10 µM, respectively. The inhibition at 100 µM came to 3% against yeast PDE2 and 92% in assay [4]. The EC50 in assay [2] is 3 µM; in assay [5] it was more than 300 µM. In assay [4], this compound came in with an inhibition at 0.1 µM of 35%. At 1 µM the inhibition in assay [4] was 52%. Besides, in assay [4], the inhibition at 10 µM amounted to 79%. For the same compound, the “inhibition of rat DPD enzymatic activity (in words)” value in assay [4] (listed as R020 1724) is reported as “readily inhibited; also recorded: most effective inhibitors”.

Take `CC(C)Cn1c(=O)n(C)c(=O)c2[nH]cnc21` [IBMX]: the IC50 in [6] amounted to 9.3 µM; in assay [7] (read-out: IC50), 12 µM; in assay [8], 15 µM; at DPDE4 (plasmid pADH72C) [9], 11 µM; in assay [10], 10 µM; in assay [11], 11 µM. Moreover, the inhibition at 250 µM at yeast PDE2 was determined as 0%; in assay [4], 87%. Also, in assay [3] (no detectable difference in IC50 between clones), the “inhibition of the human dunce-like PDEs (in words)” value was “inhibited”.

Consider `COCc1nc2c([nH]1)c(=O)n(C)c(=O)n2CC(C)C` [8-Methoxy IBMX], for which the IC50 stood at 220 µM in assay [6]; 170 µM in [7] (pADDR, 1 μM 3H cAMP, SD in parentheses, read-out: IC50); 190 µM on DPDE4 (plasmid pADH72C) [12]; 220 µM in assay [8]; 160 µM in assay [10]; 120 µM in assay [11]. Further, the “IC50s fold higher than for their specific PDE classes” value (“IC50s fold higher than” below) in assay [3] fell in the range of 10 to 1000 fold.

As for `CCCOc1ccccc1-c1nc2nn[nH]c2c(=O)[nH]1` [Zaprinast], the IC50 in assay [6] is 120 µM; in [7] (read-out: IC50), 58 µM; in [8], 90 µM; in assay [10], 88 µM; in [11], 130 µM. Further, in [3], the “IC50s fold higher than” value fell in the range of 10 to 1000 fold.

For the compound `Cn1c(=O)c2[nH]cnc2n(C)c1=O` [Theophylline], in [2], the EC50 was 300 µM.

`Nc1nc2c(ncn2[C@@H]2O[C@@H]3COP(=O)(O)O[C@H]3[C@H]2O)c(=O)[nH]1` [cGMP]: the IC50 (in assay [6]; in [7] (read-out: IC50); in assay [8]; against DPDE4 (plasmid pADH72C) [9]; in assay [10]; in [11]) was more than 1000 µM throughout. For the same compound, the EC50 in assay [2] and in [5] was more than 300 µM throughout. Also, the “inhibition of cAMP phosphodiesterase activity by cGMP” value in [13] is given as “did not inhibit”.

With `Cc1[nH]c(=O)c(C#N)cc1-c1ccncc1` [Milrinone], the IC50 was 59 µM in assay [6], more than 1000 µM in assay [7] (read-out: IC50), 16 µM in assay [10] and more than 1000 µM in assay [11]. Also, the EC50 in [2] and in assay [5] was 30 µM each time. For the same compound, the “effect on viable cells of the culture after heat treatment (in words)” value in assay [14] was “no observable effect”.

For `COc1ccc(C2CNC(=O)C2)cc1OC1CCCC1` (centres unmarked) [Rolipram], the “heat shock phenotype (in words)” value in assay [15] is recorded as “become heat shock sensitive again”. In addition, the IC50 is 0.5 µM in [6]; 1000 µM in assay [1]; more than 740 µM in assay [7]; 0.2 to 0.5 µM in assay [3]; […] in assay [8]; 0.18 µM in [10]. Further, in [11], the IC50 was more than 1000 µM. Also, the “sensitivity to heat shock (in words)” value in [16] is “much more sensitive to heat shock”. The figures for the EC50 in assay [2] and in [5] were […] and more than 300 µM, respectively. In addition, the “sensitivity of the cAMP phosphodiesterases to the agent (in words)” value in assay [17] is “sensitive”. In addition, in [14] (100 μM), the “cells remaining viable out of approximately 150,000 cells” value is reported as “less than 10 cells”. In addition, in assay [14], the “effect on viable cells of the culture after heat treatment (in words)” value was “reduced the number of viable cells”. Also, the “inhibition of rat DPD enzymatic activity (in words)” value in assay [4] was “readily inhibited; also recorded: most effective inhibitors”.

As for `CN(C(=O)CCCOc1ccc2[nH]c(=O)ccc2c1)C1CCCCC1` [Cilostamide], the IC50 in assay [6] was 140 µM; in assay [7] (read-out: IC50), more than 1000 µM; in assay [8], 55 µM; in [10], 90 µM; in assay [11], more than 1000 µM. In assay [3], the “IC50s fold higher than” value is given as 10 to 1000 fold.

With `CCCCn1c(=O)c2c(ncn2CC(C)=O)n(CCCC)c1=O` [Denbufylline], the IC50 in [6] is 0.22 µM; in assay [1], 1 to 3 µM; in assay [7] (read-out: IC50), 3 µM; in assay [3], 1 to 10 µM; in [8], 0.2 µM; in assay [10], 0.1 µM. Further, the IC50 in assay [11] was 1.5 µM.
